Results taken from the OligoGym collection.
Oligonucleotides are written 5' to 3', each unit as a sugar letter and its base; * is a phosphorothioate linkage, no mark a phosphodiester; rarer units and linkages stand in square brackets, end groups in braces. Plain capitals give the bases only. d = 2'-deoxy (DNA); r = 2'-OH (RNA)

Each substance was assayed against MRFAP1 (assay: reporter assay of Huesken 2005). Details: siRNA.
Also: test concentration or dose not given here.

Compared with “sense rGrUrCrCrCrUrGrUrGrArCrArCrUrGrArGrArCdTdT / antisense rGrUrCrUrCrArGrUrGrUrCrArCrArGrGrGrArCdCdC”, “sense rGrUrGrArGrCrCrGrUrCrCrGrCrGrGrUrUrUrCdTdT / antisense rGrArArArCrCrGrCrGrGrArCrGrGrCrUrCrArCdGdA” is higher in normalised inhibition (eCFP-eYFP dual reporter): 43% for the first, 72.2% for the second.

Going from “sense rGrUrGrGrGrArGrArUrGrGrArCrArArUrArUrGdTdT / antisense rCrArUrArUrUrGrUrCrCrArUrCrUrCrCrCrArCdAdG” to “sense rGrUrGrUrGrArGrArCrCrArArArGrGrArGrGrAdTdT / antisense rUrCrCrUrCrCrUrUrUrGrGrUrCrUrCrArCrArCdAdG”, the normalised inhibition (eCFP-eYFP dual reporter) rises from 79.7% to 98%.

First: sense rGrUrGrUrGrUrUrCrCrUrGrArArUrUrUrGrArGdTdT / antisense rCrUrCrArArArUrUrCrArGrGrArArCrArCrArCdCdA
Second: sense rGrUrUrCrCrUrGrArArUrUrUrGrArGrGrUrGrCdTdT / antisense rGrCrArCrCrUrCrArArArUrUrCrArGrGrArArCdAdC
The normalised inhibition (eCFP-eYFP dual reporter) of the first is higher: 32.7% for the first, 23.1% for the second.

First: sense rUrArCrArCrGrGrCrUrArGrGrArCrUrGrArUrGdTdT / antisense rCrArUrCrArGrUrCrCrUrArGrCrCrGrUrGrUrAdAdG
Second: sense rUrArCrGrUrUrUrCrUrGrCrUrArUrGrGrUrCrUdTdT / antisense rArGrArCrCrArUrArGrCrArGrArArArCrGrUrAdGdT
The normalised inhibition (eCFP-eYFP dual reporter) of the first is lower: 61.8% for the first, 62.7% for the second.

First: sense rUrArGrArArGrArGrGrArCrUrCrCrArUrGrCrAdTdT / antisense rUrGrCrArUrGrGrArGrUrCrCrUrCrUrUrCrUrAdGdA
Second: sense rUrArGrGrArCrUrGrArUrGrArCrCrUrGrGrGrAdTdT / antisense rUrCrCrCrArGrGrUrCrArUrCrArGrUrCrCrUrAdGdC
The normalised inhibition (eCFP-eYFP dual reporter) of the first is lower: 68.6% for the first, 70.4% for the second.

Going from “sense rUrArUrCrCrCrCrArUrArUrArUrUrUrGrArGrGdTdT / antisense rCrCrUrCrArArArUrArUrArUrGrGrGrGrArUrAdCdC” to “sense rUrCrArCrCrGrCrCrUrCrUrGrArArArGrUrUrCdTdT / antisense rGrArArCrUrUrUrCrArGrArGrGrCrGrGrUrGrAdGdC”, the normalised inhibition (eCFP-eYFP dual reporter) falls from 48.6% to 45.5%.

Compared with “sense rUrCrArUrUrCrCrUrGrGrCrUrUrUrGrGrUrGrUdTdT / antisense rArCrArCrCrArArArGrCrCrArGrGrArArUrGrAdAdC”, “sense rUrCrCrArGrArUrCrArArGrArCrGrCrArGrGrUdTdT / antisense rArCrCrUrGrCrGrUrCrUrUrGrArUrCrUrGrGrAdTdC” is higher in normalised inhibition (eCFP-eYFP dual reporter): 52.6% for the first, 54.6% for the second.

Compared with “sense rUrCrCrCrUrGrArArCrUrUrUrGrGrGrUrCrCrCdTdT / antisense rGrGrGrArCrCrCrArArArGrUrUrCrArGrGrGrAdGdC”, “sense rUrCrCrUrGrGrCrUrUrUrGrGrUrGrUrGrUrUrCdTdT / antisense rGrArArCrArCrArCrCrArArArGrCrCrArGrGrAdAdT” is higher in normalised inhibition (eCFP-eYFP dual reporter): 53.3% for the first, 66.9% for the second.

Compared with “sense rUrCrGrCrUrGrArCrGrCrGrCrGrArGrCrGrCrGdTdT / antisense rCrGrCrGrCrUrCrGrCrGrCrGrUrCrArGrCrGrAdCdG”, “sense rUrCrGrGrArGrGrArUrUrGrUrArUrUrGrUrUrUdTdT / antisense rArArArCrArArUrArCrArArUrCrCrUrCrCrGrAdCdC” is higher in normalised inhibition (eCFP-eYFP dual reporter): 14% for the first, 54.7% for the second.

Compared with “sense rUrCrGrUrGrCrArGrArCrArArGrCrArArArGrCdTdT / antisense rGrCrUrUrUrGrCrUrUrGrUrCrUrGrCrArCrGrAdCdA”, “sense rUrCrGrUrGrCrGrGrCrGrGrArUrArGrArGrArAdTdT / antisense rUrUrCrUrCrUrArUrCrCrGrCrCrGrCrArCrGrAdGdC” is higher in normalised inhibition (eCFP-eYFP dual reporter): 67.6% for the first, 87.2% for the second.

Compared with “sense rUrCrUrGrCrUrGrCrCrCrGrUrCrArUrCrCrArCdTdT / antisense rGrUrGrGrArUrGrArCrGrGrGrCrArGrCrArGrAdAdA”, “sense rUrCrUrGrGrUrUrGrArGrUrGrArUrGrGrCrGrAdTdT / antisense rUrCrGrCrCrArUrCrArCrUrCrArArCrCrArGrAdAdT” is higher in normalised inhibition (eCFP-eYFP dual reporter): 35.3% for the first, 75.7% for the second.

Going from “sense rUrCrUrUrCrGrUrGrArGrCrCrGrUrCrCrGrCrGdTdT / antisense rCrGrCrGrGrArCrGrGrCrUrCrArCrGrArArGrAdCdT” to “sense rUrCrUrUrGrGrGrUrGrArCrCrUrGrArUrArGrCdTdT / antisense rGrCrUrArUrCrArGrGrUrCrArCrCrCrArArGrAdAdA”, the normalised inhibition (eCFP-eYFP dual reporter) rises from 35.4% to 45.6%.

Going from “sense rUrCrUrUrUrUrCrCrCrCrUrCrUrGrUrCrUrUrCdTdT / antisense rGrArArGrArCrArGrArGrGrGrGrArArArArGrAdAdA” to “sense rUrGrArUrGrArCrCrUrGrGrGrArGrArArGrGrGdTdT / antisense rCrCrCrUrUrCrUrCrCrCrArGrGrUrCrArUrCrAdGdT”, the normalised inhibition (eCFP-eYFP dual reporter) falls from 35.3% to 33.2%.
